Measurements taken from patent US9884881B2, “Chelates of lead (II) and bismuth (III) based on trans-di-N-picolinate tetraazacycloalkanes” (CNRS—CENTRE NATIONAL DE LA RECHERCHE SCIENTIFIQUE, priority 2013, dated 2018).

Experiments:
[1] = In vitro stability of the radio-labeled chelate in human plasma; format: in vitro ADME
Experimental: The stability of the serum and of the in vitro chelate were also studied by TLC and by HPLC.
For the stability of the serum, 200 μL of radiomarked Me-DODPA^2− solution (activity: 1 MBq, radiochemical purity: 95%) were mixed with 800 μL of human plasma. The plasma stability values were controlled in comparison with free ^213Bi, after 1 and 2 hours of incubation (about 1 and 2 half-lives) at ambient temperature by direct gel permeation chromatography on plasma in a PD-10 column and by TLC analysis of this supernatant after precipitation of the plasma proteins with ammonium sulfate. The TLC analysis was performed under the same conditions as earlier. After precipitation, the activity in the precipitate was measured (78.8%) as also the activity in the supernatant ([…]).

[2] = 1H NMR competition with DOTA for complexation of bismuth (III); format: physicochemical
Experimental: As regards the chelate of Me-DODPA and bismuth (III) or DODPA and bismuth (III), the thermodynamic stability constants were evaluated by NMR ^1H (in a concentration of 10^−2 M) in studying the competitivity of the complexation of bismuth (III) with Me-DODPA or DODPA and DOTA. Indeed, such a constant cannot be measured directly by potentiometery for the bismuth chelates
A mole equivalent of […] was added to an equimolar solution of DODPA and DOTA at pH=1. The pH was then adjusted to 3 and an NMR spectrum was recorded. After five days at 25° C., it was observed that about 40% of the DODPA had been complexated with bismuth (III). […] Chem., 2003, 42, 2342-2349, is about 30.3.

[3] = Kinetics of complexation with bismuth (III) by UV/Vis spectroscopy; format: physicochemical; settings: 1.65×10^-4 M each, stirring at ambient temperature
Experimental: (§1) The kinetics of complexation of Me-DODPA chelates with bismuth (III) and lead (II) were studied by UV/Vis spectroscopy.
An aqueous solution of Bi(NO3)3.5H2O (1.65×10^−4 M) was added to an aqueous solution of Me-DODPA (1.65×10^−4M). The UV/Vis spectra were recorded at different reaction times.

[4] = Kinetics of complexation with lead (II) by UV/Vis spectroscopy; format: physicochemical; settings: equimolar 0.74×10^-4 M, pH=7
Excerpt: as §1
Referring to FIG. 4, a total complexation of Me-DODPA with lead (II) was observed ten minutes after the equimolar mixing (0.74×10^−4 M) of an aqueous solution of PbCl2 and an aqueous solution of Me-DODPA at pH=7.

[5] = Thermodynamic stability constant pK of lead (II) chelates by potentiometry; format: physicochemical; settings: 25° C., 0.10 M in KNO3
Experimental: (§2) For the DODPA or Me-DODPA chelates with lead (II), the thermodynamic stability constant pK was determined directly by potentiometery at 25° C., for a concentration of 0.10 M in KNO3. […] The pM values corresponding to the non-chelated lead concentrations were therefore computed for the DODPA or Me-DODPA chelates with lead (II) and compared with the value known for the DOTA chelate with lead (II). This value pM is defined by the negative logarithm of the free metal concentration at a pH of 7.4 and with a concentration of Pb(II) of 10 μM and a ligand concentration that is ten times greater. A pM value of 12.3 was measured for the chelate of DODPA and lead (II) and 14.9 for the chelate of Me-DODPA and lead (II) while the known pM value for the complex of DOTA and lead (II) is 18.4

[6] = pM value (free lead concentration) of lead (II) chelates; format: physicochemical; settings: pH 7.4, Pb(II) 10 μM, ligand concentration ten times greater
Experimental: as §2

[7] = Kinetics of dissociation of complexes in DCl 0.1 M by NMR; format: physicochemical
Experimental: The kinetics of dissociation of these complexes were also studied by NMR. In this context, the [Bi(Me-DODPA)](NO3) and [Pb(Me-DODPA)] complexes were dissolved in DCl 0.1 M.

[8] = human plasma, ammonium sulfate precipitation

CN1CCN(Cc2cccc(C(=O)[O-])n2)CCN(C)CCN(Cc2cccc(C(=O)[O-])n2)CC1.CN1CCN(Cc2cccc(C(=O)[O-])n2)CCN(C)CCN(Cc2cccc(C(=O)[O-])n2)CC1.CN1CCN(Cc2cccc(C(=O)[O-])n2)CCN(C)CCN(Cc2cccc(C(=O)[O-])n2)CC1.[213Bi+3].[213Bi+3] [(^213Bi(Me-DODPA))^+]
stability in human plasma ([1]; 1 and 2 hours of incubation at ambient temperature): stable in human plasma for at least two half-lives
radioactivity of the supernatant detected at Fr=0.5 (intact chelate), TLC ([1]; human plasma supernatant after protein precipitation): more than 90%
activity in the precipitate after precipitation of plasma proteins [1, 8]: 78.8%
activity in the supernatant after precipitation of plasma proteins [1, 8]: 3.8%

O=C(O)c1cccc(CN2CCNCCN(Cc3cccc(C(=O)O)n3)CCNCC2)n1 [DODPA]
ligand complexated with bismuth (III) in competition with DOTA ([2]; equimolar ligand and DOTA, one mole equivalent Bi, pH 3, five days at 25° C., 10^-2 M): about 40%

CN1CCN(Cc2cccc(C(=O)O)n2)CCN(C)CCN(Cc2cccc(C(=O)O)n2)CC1 [Me-DODPA]
time to total complexation with bismuth (III) [3]: 30 min
time to total complexation with lead (II) [4]: ten
bismuth (III) complexated in equimolar mixture of ligand and DOTA ([2]; equimolar mixture of Me-DODPA and DOTA): the totality of the bismuth (III) was complexated by the Me-DODPA

O=C([O-])c1cccc(CN2CCNCCN(Cc3cccc(C(=O)[O-])n3)CCNCC2)n1.[Pb+2] [Pb(DODPA)]
thermodynamic stability constant pK [5]: 17.09
pM value (negative logarithm of the free metal concentration) [6]: 12.3

CN1CCN(Cc2cccc(C(=O)[O-])n2)CCN(C)CCN(Cc2cccc(C(=O)[O-])n2)CC1.[Pb+2] [[Pb(Me-DODPA)]]
dissociation of the complex [7]: total dissociation of the complex [Pb(Me-DODPA)] was observed at the end of seven days
thermodynamic stability constant pK [5]: 18.74
pM value (negative logarithm of the free metal concentration) [6]: 14.9
